The test system of one series is human IgG in mouse serum. Briefly: Immunoglobulin G (IgG) mRNA in vivo evaluation using lipid nanoparticle compositions (human IgG ELISA). More on the design: species or system mice. The conditions noted are these: tail vein injection, μg IgG/mL serum 24 hours after administration; for Serum IgG @ 0.3 mg/kg: 0.3 mg mRNA/kg; for Serum IgG @ 1.0 mg/kg: 1.0 mg mRNA/kg. The protocol: (§1) A lipid of structure (I), DSPC, cholesterol and PEG-lipid are solubilized in ethanol at a molar ratio of 50:10:38.5:1.5 or 47.5:10:40.7:1.8. Lipid nanoparticles (LNP) are prepared at a total lipid to mRNA weight ratio of approximately 10:1 to 40:1. Briefly, the mRNA is diluted to 0.2 mg/mL in 10 to 50 mM citrate buffer, pH 4 or 10 to 25 mM acetate buffer, pH 4. Syringe pumps are used to mix the ethanolic lipid solution with the mRNA aqueous solution at a ratio of about 1:5 to 1:3 (vol/vol) with total flow rates above 15 mL/min. The ethanol is then removed, and the external buffer replaced with PBS by dialysis. Finally, the lipid nanoparticles are filtered through a 0.2 µm pore sterile filter.
Studies are performed in 6-8-week-old CD-1/ICR mice (Envigo) according to guidelines established by an institutional animal care committee (ACC) and the Canadian Council on Animal Care (CCAC). Varying doses of mRNA-lipid nanoparticle are systemically administered by tail vein injection and animals euthanized at a specific time point (e.g., 24 hours) post-administration. The whole blood is collected, and the serum subsequentially separated by centrifuging the tubes of the whole blood at 2000×g for 10 minutes at 4° C. and stored at −80° C. until use for analysis.
For immunoglobulin G (IgG) ELISA (Life Diagnostics Human IgG ELISA kit), the serum samples are diluted at 100 to 15000 folds with 1× diluent solution. 100 μL of diluted serum is dispensed into anti-human IgG coated 96-well plate in duplicate alongside human IgG standards and incubated in a plate shaker at 150 rpm at 25° C. for 45 minutes. The wells are washed 5 times with 1× wash solution using a plate washer (400 μL/well). 100 μL of HRP conjugate is added into each well and incubated in a plate shaker at the same condition above. The wells are washed 5 times again with 1× wash solution using a plate washer (400 μL/well). 100 μL of TMB reagent is added into each well and incubated in a plate shaker at the same condition above. The reaction is stopped by adding 100 μL of Stop solution to each well. The absorbance is read at 450 nm (A450) with a microplate reader. The amount of human IgG in mouse serum is determined by plotting A450 values for the assay standard against human IgG concentration.
(§2) Representative compounds of the disclosure shown in Table 2 were formulated using the following molar ratio: 50% cationic lipid/10% distearoylphosphatidylcholine (DSPC)/38.5% Cholesterol/1.5% PEG lipid 2-[2-(ω-methoxy(polyethyleneglycol2000)ethoxy]-N,N-ditetradecylacetamide) or 47.5% cationic lipid/10% DSPC/40.7% Cholesterol/1.8% PEG lipid. Activity was determined by measuring luciferase expression in the liver 4 hours following administration via tail vein injection as described in Example 1 or by measuring the amount of human IgG in mouse serum as described in Example 2. The activity was compared at a dose of 1.0 or 0.5 or 0.3 mg mRNA/kg and expressed as ng luciferase/g liver measured 4 hours after administration, as described in Example 1 or as μg IgG/mL serum measured 24 hours after administration, as described in Example 2. Compound numbers in Table 2 refer to the compound numbers of Table 1.
Background: In an ELISA, binding on a coated surface is turned into a signal by an enzyme label.

The nature of series [1]: Determination of pKa of formulated lipids (TNS fluorescence assay in lipid nanoparticles). The class given is physicochemical. The conditions noted are these: lipid nanoparticles (compound/DSPC/cholesterol/PEG-lipid), lipid formulated in LNP (cationic lipid/DSPC/cholesterol/PEG-lipid), pH of half-maximal fluorescence. As for the experimental part:
As described elsewhere, the pKa of formulated lipids is correlated with the effectiveness of LNPs for delivery of nucleic acids (see Jayaraman et al, Angewandte Chemie, International Edition (2012), 51(34), 8529-8533; Semple et al, Nature Biotechnology 28, 172-176 (2010)). In some embodiments, the preferred range of pKa is ˜5 to ˜7. The pKa of each lipid is determined in lipid nanoparticles using an assay based on fluorescence of 2-(p-toluidino)-6-napthalene sulfonic acid (TNS). Lipid nanoparticles comprising compound of structure (I)/DSPC/cholesterol/PEG-lipid (50/10/38.5/1.5 or 47.5:10:40.7:1.8 mol %) in PBS at a concentration of 0.4 mM total lipid are prepared using the in-line process as described in Example 1. TNS is prepared as a 100 μM stock solution in distilled water. Vesicles are diluted to 24 μM lipid in 2 mL of buffered solutions containing 10 mM HEPES, 10 mM MES, 10 mM ammonium acetate, and 130 mM NaCl, where the pH ranged from 2.5 to 11. An aliquot of the TNS solution is added to give a final concentration of 1 μM and following vortex mixing fluorescence intensity is measured at room temperature in a SLM Aminco Series 2 Luminescence Spectrophotometer using excitation and emission wavelengths of 321 nm and 445 nm. A sigmoidal best fit analysis is applied to the fluorescence data and the pKa is measured as the pH giving rise to half-maximal fluorescence intensity.

The subject of series [2] is luciferase expression in the liver. Nature of the series: Luciferase mRNA in vivo evaluation using lipid nanoparticle compositions (liver luciferase expression). The following applies: tail vein injection, ng luciferase/g liver 4 hours after administration; for Liver Luc @ 0.3 mg/kg: 0.3 mg mRNA/kg; for Liver Luc @ 1.0 mg/kg: 1.0 mg mRNA/kg. More on the design: species or system mice. The protocol:
as §1
Studies are performed in 6-8-week-old female C57BL/6 mice (Charles River) or 8-10-week-old CD-1 (Harlan) mice (Charles River) according to guidelines established by an institutional animal care committee (ACC) and the Canadian Council on Animal Care (CCAC). Varying doses of mRNA-lipid nanoparticle are systemically administered by tail vein injection and animals euthanized at a specific time point (e.g., 4 hours) post-administration. Liver and spleen are collected in pre-weighed tubes, weights determined, immediately snap frozen in liquid nitrogen, and stored at −80° C. until processing for analysis.
For liver, approximately 50 mg is dissected for analyses in a 2 mL FastPrep tubes (MP Biomedicals, Solon OH). ¼″ ceramic sphere (MP Biomedicals) is added to each tube and 500 μL of Glo Lysis Buffer—GLB (Promega, Madison WI) equilibrated to room temperature is added to liver tissue. Liver tissues are homogenized with the FastPrep24 instrument (MP Biomedicals) at 2×6.0 m/s for 15 seconds. Homogenate is incubated at room temperature for 5 minutes prior to a 1:4 dilution in GLB and assessed using SteadyGlo Luciferase assay system (Promega). Specifically, 50 μL of diluted tissue homogenate is reacted with 50 μL of SteadyGlo substrate, shaken for 10 seconds followed by 5-minute incubation and then quantitated using a CentroXS^3 LB 960 luminometer (Berthold Technologies, Germany). The amount of protein assayed is determined by using the BCA protein assay kit (Pierce, Rockford, IL). Relative luminescence units (RLU) are then normalized to total μg protein assayed. To convert RLU to ng luciferase a standard curve is generated with QuantiLum Recombinant Luciferase (Promega).
The FLuc mRNA (L-6107) from Trilink Biotechnologies will express a luciferase protein, originally isolated from the firefly, photinus pyralis. FLuc is commonly used in mammalian cell culture to measure both gene expression and cell viability. It emits bioluminescence in the presence of the substrate, luciferin. This capped and polyadenylated mRNA is fully substituted with 5-methylcytidine and pseudouridine.
as §2

Structures are written as SMILES. Marks after values point to notes of the source that are not given here.

For orientation: pKa means the pH at which an ionisable group is half protonated. The low end stands for a group that gives up its proton readily, the high end for a group that holds its proton tightly. In the case of `CCCCCCCCC(CCCCCC)COC(=O)CCCCCN(CCCCCC(=O)OCC(CCCCCC)CCCCCCCC)CCCN(C)CCCCC(=O)OC` (centres unmarked) [Compound I-50, Bis(2-hexyldecyl) 6,6′-((3-((5-methoxy-5-oxopentyl)(methyl)amino)propyl)azanediyl)dihexanoate], in the series with human IgG in mouse serum, the “Serum IgG @ 0.3 mg/kg” value amounted to 15.4 ± 2.6 µg/mL and the “Serum IgG @ 1.0 mg/kg” value is 91.5 ± 19.7 µg/mL. In addition, the pKa in series [1] turned out to be 6.46.

On to `CCCCCCCCC(CCCCCC)C(=O)OCCCCCCN(CCCCCCOC(=O)C(CCCCCC)CCCCCCCC)CCCCN(C)CCCCC(=O)N(CCCCCC)CCCCCC` (centres unmarked) [Compound I-47, ((4-((5-(dihexylamino)-5-oxopentyl)(methyl)amino)butyl)azanediyl)bis(hexane-6,1-diyl)bis(2-hexyldecanoate)], for which, in the series on human IgG in mouse serum, the “Serum IgG @ 0.3 mg/kg” value was 15.3 ± 3.7 µg/mL and the “Serum IgG @ 1.0 mg/kg” value is 61.8 ± 11.5 µg/mL. For the same molecule, the pKa in series [1] is 6.45.

On to `CCCCCCCCC(CCCCCC)COC(=O)CCCCCN(CCCCCC(=O)OCC(CCCCCC)CCCCCCCC)CCN(C)CCCCNC(=O)CCCCCCC` (centres unmarked) [Compound I-1, bis(2-hexyldecyl) 6,6′-((2-(methyl(4-octanamidobutyl)amino)ethyl)azanediyl)dihexanoate], for which, in series [2], the “Liver Luc @ 0.3 mg/kg” value is 5497 ± 1457 ng/g and the “Liver Luc @ 1.0 mg/kg” value was 13160 ± 5805 ng/g. Besides, the pKa in series [1] was determined as 6.64.

With `CCCCCCCC(=O)NCCCCN(C)CCN(CCCCCCCCCOC(=O)C(CCCC)CCCCCC)CCCCCCCCCOC(=O)C(CCCC)CCCCCC` (centres unmarked) [Compound I-6, ((2-(methyl(4-octanamidobutyl)amino)ethyl)azanediyl)bis(nonane-9,1-diyl)bis(2-butyloctanoate)], in series [2], the “Liver Luc @ 0.3 mg/kg” value is reported as 12241 ± 3108 ng/g and the “Liver Luc @ 1.0 mg/kg” value is reported as 67044 ± 44033 ng/g. In series [1], this molecule returned a pKa of 6.56.

`CCCCCCCCC(CCCCCC)COC(=O)CCCCCN(CCCCCC(=O)OCC(CCCCCC)CCCCCCCC)CCN(C)CCCCCC(=O)NCC(CC)CCCC` (centres unmarked) [Compound I-11, bis(2-hexyldecyl) 6,6′-((2-((6-((2-ethylhexyl)amino)-6-oxohexyl)(methyl)amino)ethyl)azanediyl)dihexanoate]: in series [2], the “Liver Luc @ 0.3 mg/kg” value came to 16601 ± 5871 ng/g and the “Liver Luc @ 1.0 mg/kg” value was found to be 66075 ± 18868 ng/g. The pKa in series [1] is 6.27.

Consider `CCCCCCCCC(CCCCCC)COC(=O)CCCCCN(CCCCCC(=O)OCC(CCCCCC)CCCCCCCC)CCN(C)CCCCCC(=O)N(C)CCCCCCCC` (centres unmarked) [Compound I-10, bis(2-hexyldecyl) 6,6′-((2-(methyl(6-(methyl(octyl)amino)-6-oxohexyl)amino)ethyl)azanediyl)dihexanoate], for which, in series [2], the “Liver Luc @ 0.3 mg/kg” value worked out at 9794 ± 1750 ng/g and the “Liver Luc @ 1.0 mg/kg” value amounted to 43271 ± 18103 ng/g. The same molecule gave a pKa in series [1] of 6.33.

For the molecule `CCCCCCCCC(CCCCCC)C(=O)OCCCCCCN(CCCCCCOC(=O)C(CCCCCC)CCCCCCCC)CCN(C)CCCC(=O)N(CCCC)CCCC` (centres unmarked) [Compound I-8, ((2-((4-(dibutylamino)-4-oxobutyl)(methyl)amino)ethyl)azanediyl)bis(hexane-6,1-diyl)bis(2-hexyldecanoate)], in series [2], the “Liver Luc @ 0.3 mg/kg” value was determined as 16110 ± 2654 ng/g and the “Liver Luc @ 1.0 mg/kg” value was determined as 56927 ± 16125 ng/g. In series [1], this molecule gave a pKa of 6.13.

Take `CCCCCCCCCCNC(=O)CCCCCN(C)CCN(CCCCCC(=O)OCC(CCCCCC)CCCCCCCC)CCCCCC(=O)OCC(CCCCCC)CCCCCCCC` (centres unmarked) [Compound I-7, bis(2-hexyldecyl) 6,6′-((2-((6-(decylamino)-6-oxohexyl)(methyl)amino)ethyl)azanediyl)dihexanoate]: in series [2], the “Liver Luc @ 0.3 mg/kg” value was determined as 10812 ± 2335 ng/g and the “Liver Luc @ 1.0 mg/kg” value is on record as 44836 ± 12026 ng/g. This molecule gave a pKa in series [1] of 6.57.

Take `CCCCCCCCC(CCCCCC)COC(=O)CCCCCCCN(CCCCCCCC(=O)OCC(CCCCCC)CCCCCCCC)CCN(C)CCCCNC(=O)CCCCCCC` (centres unmarked) [Compound I-5, bis(2-hexyldecyl) 8,8′-((2-(methyl(4-octanamidobutyl)amino)ethyl)azanediyl)dioctanoate]: in series [2], the “Liver Luc @ 0.3 mg/kg” value amounted to 6538 ± 11243 ng/g and the “Liver Luc @ 1.0 mg/kg” value amounted to 43609 ± 9207 ng/g. This molecule also came in with a pKa in series [1] of 6.68.

Consider `CCCCCCCCC(=O)NCCCN(C)CCN(CCCCCCCC(=O)OCC(CCCCCC)CCCCCCCC)CCCCCCCC(=O)OCC(CCCCCC)CCCCCCCC` (centres unmarked) [Compound I-4, bis(2-hexyldecyl) 8,8′-((2-(methyl(3-nonanamidopropyl)amino)ethyl)azanediyl)dioctanoate], for which, in series [2], the “Liver Luc @ 0.3 mg/kg” value was 7747 ± 1565 ng/g and the “Liver Luc @ 1.0 mg/kg” value stood at 24964 ± 8175 ng/g. Besides, the pKa in series [1] came out at 6.7.

For `CCCCCCCCCCCCCC(=O)NCCCCN(C)CCN(CCCCCC(=O)OCC(CCCCCC)CCCCCCCC)CCCCCC(=O)OCC(CCCCCC)CCCCCCCC` (centres unmarked) [Compound I-3, bis(2-hexyldecyl) 6,6′-((2-(methyl(4-tetradecanamidobutyl)amino)ethyl)azanediyl)dihexanoate], in series [2] (0.5 mg mRNA/kg (footnote *)), the “Liver Luc, determined at 0.5 mg/kg” value was 31 ± 6* ng/g. In series [1], this molecule came in with a pKa of 6.7.

These data come from US20240270679A1, “LIPIDS FOR USE IN LIPID NANOPARTICLE FORMULATIONS” (Acuitas Therapeutics, Inc., priority 2022, published 2024).
